Data: paper PMC7080406 (eLife, 2020)
Read-outs that look alike come from different tables or passages of the source.

What was measured:
5-HT7A [1] = target: T1, 5-HT7A (Homo sapiens, UniProt P34969); experiment: Off-target radioligand binding, 5-HT7A
T1 construct: expressed in transfected cells; host or cells: HEK293T, transient transfection (NIMH PDSP)
Experimental: (§1) The Radioligand binding assays were conducted by the NIMH Psychoactive Drug Screening Program (PDSP). The NIMH PDSP is directed by Bryan L. Roth, MD, PhD, at the University of North Carolina at Chapel Hill, North Carolina, and Program Officer Jamie Driscoll at NIMH, Bethesda, MD. Binding assay procedures and protocols are also available online at http://pdspdb.unc.edu/pdspWeb/?site=assays. […] Assay plates were sealed and incubated for 4 hr at 37°C in a humidified incubator until harvesting. Plates were harvested using vacuum filtration onto 0.3% polyethyleneimine pre-soaked 96-well Filtermat A (PerkinElmer) and washed three times with cold wash buffer (50 mM Tris, pH 7.4). Filters were dried and melted with a scintillation cocktail (Meltilex, PerkinElmer). Radioactivity was counted using a Wallac TriLux Microbeta counter (PerkinElmer). Results were analyzed using GraphPad Prism 7.0.

MT1 = target: T2, MT1 (Homo sapiens, UniProt P48039); experiment: [3H]melatonin competition radioligand binding, MT1 membranes; details: read-out: MT1 pKi ± SEM (converted)
T2 construct: expressed in transfected cells; host or cells: HEK293T (ATCC CRL-11268), transient transfection
Experimental: as §1

5-HT1A = target: T3, 5-HT1A (Homo sapiens, UniProt P08908); experiment: Off-target radioligand binding, 5-HT1A
T3 construct: expressed in transfected cells; host or cells: HEK293T, transient transfection (NIMH PDSP)
T3 sequence (P08908 1-422): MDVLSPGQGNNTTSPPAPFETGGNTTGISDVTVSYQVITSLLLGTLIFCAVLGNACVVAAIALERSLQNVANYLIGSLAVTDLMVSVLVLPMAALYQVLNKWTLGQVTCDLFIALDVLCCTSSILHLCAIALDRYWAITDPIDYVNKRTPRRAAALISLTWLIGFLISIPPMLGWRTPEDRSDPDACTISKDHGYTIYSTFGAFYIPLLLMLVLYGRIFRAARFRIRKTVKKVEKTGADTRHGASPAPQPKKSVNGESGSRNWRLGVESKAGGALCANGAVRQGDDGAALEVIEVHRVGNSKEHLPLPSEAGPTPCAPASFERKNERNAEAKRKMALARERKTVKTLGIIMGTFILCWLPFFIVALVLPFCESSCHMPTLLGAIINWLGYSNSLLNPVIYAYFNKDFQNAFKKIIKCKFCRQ
Experimental: as §1

MT2 = target: T4, MT2 (Homo sapiens, UniProt P49286); experiment: GloSensor Gi/o-mediated cAMP production inhibition assay, MT2; format: cell-based; parameters: expressed in transfected cells; host or cells: HEK293T (ATCC CRL-11268), transient transfection; details: for EC50: Gi/o mediated
T4 sequence (P49286 1-362): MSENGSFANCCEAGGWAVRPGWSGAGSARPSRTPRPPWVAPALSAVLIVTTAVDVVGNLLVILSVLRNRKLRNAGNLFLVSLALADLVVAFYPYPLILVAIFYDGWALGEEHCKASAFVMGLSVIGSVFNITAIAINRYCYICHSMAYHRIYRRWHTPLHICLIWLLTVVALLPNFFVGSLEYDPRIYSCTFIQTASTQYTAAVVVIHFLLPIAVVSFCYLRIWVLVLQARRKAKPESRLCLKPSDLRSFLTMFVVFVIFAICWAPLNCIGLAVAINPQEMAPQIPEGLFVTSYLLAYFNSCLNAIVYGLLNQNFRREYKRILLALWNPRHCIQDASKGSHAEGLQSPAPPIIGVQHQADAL
Experimental: Briefly, HEK293 T cells (as above) were transiently co-transfected with receptor (MT1 or MT2) and GloSensor cAMP (Promega) plasmids overnight, plated in Poly-L-Lysine coated 384-well white clear bottom plates in DMEM + 1% dialyzed FBS. Cells were used for assays at a minimum of 6 hr after plating. Culture medium was first removed and cells were stimulated with drugs in assay buffer (1x HBSS, 20 mM HEPES, 1 mg/ml BSA, 0.1 mg/ml ascorbic acid, pH 7.4) for 15 min at room temperature (this and all the following steps), followed by addition of a mixture of isoproterenol (final of 100 nM) and luciferin (final of 1 mM) for Gi/o-cAMP production inhibition assays and luciferin (final of 1 mM) for Gs-cAMP production assays. The plates were counted for luminescence after 25 min in a luminescence plate reader. Results were analyzed using GraphPad Prism 7.0.

[2] = target: T5, MT1 N162Q mutant receptor (Homo sapiens, UniProt P48039, N162Q); experiment: Tango β-arrestin recruitment assay, MT1 N162Q mutant; format: cell-based; details: normalized individually (basal 0%, maximum 100%); mean ± SEM, minimum of 3 assays; read-out: pEC50, Tango, MT1 N162Q (converted)
T5 construct: expressed in transfected cells; host or cells: HTLA cells (HEKT based)
Experimental: In brief, HTLA cells were transiently transfected with receptor TANGO DNA constructs overnight in DMEM with 10% FBS. Transfected cells were then plated into poly-L-Lys coated 384-well plates using DMEM supplemented with 1% dialyzed FBS. After 6 hr incubation, drug dilutions, prepared in DMEM with 1% dFBS, were added for incubation overnight (16–20 hr). Medium and drug solutions were removed, Bright-Glo reagent (20 uL/well) was added for luminescence counting 20 min later. Results were analyzed in GraphPad Prism 7.0.

5-HT7A [3] = target: T1, 5-HT7A; experiment: Gs-mediated cAMP production assay (GloSensor); format: cell-based; details: weak partial agonist; receptor not given

T1 sequence (P34969 1-445 isoform P34969-2): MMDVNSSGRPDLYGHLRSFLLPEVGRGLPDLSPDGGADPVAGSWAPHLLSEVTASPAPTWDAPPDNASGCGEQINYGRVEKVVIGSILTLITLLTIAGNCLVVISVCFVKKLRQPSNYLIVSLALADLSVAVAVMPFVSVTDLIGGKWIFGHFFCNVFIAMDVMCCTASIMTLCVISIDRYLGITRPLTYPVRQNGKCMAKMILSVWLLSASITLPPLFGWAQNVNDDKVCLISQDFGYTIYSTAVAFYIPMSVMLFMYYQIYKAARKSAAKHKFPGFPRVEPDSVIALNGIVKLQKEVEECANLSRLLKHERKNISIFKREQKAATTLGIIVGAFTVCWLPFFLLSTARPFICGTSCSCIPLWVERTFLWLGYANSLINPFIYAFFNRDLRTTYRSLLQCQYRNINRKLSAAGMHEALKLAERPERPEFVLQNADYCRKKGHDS
T2 sequence (P48039 whole entry): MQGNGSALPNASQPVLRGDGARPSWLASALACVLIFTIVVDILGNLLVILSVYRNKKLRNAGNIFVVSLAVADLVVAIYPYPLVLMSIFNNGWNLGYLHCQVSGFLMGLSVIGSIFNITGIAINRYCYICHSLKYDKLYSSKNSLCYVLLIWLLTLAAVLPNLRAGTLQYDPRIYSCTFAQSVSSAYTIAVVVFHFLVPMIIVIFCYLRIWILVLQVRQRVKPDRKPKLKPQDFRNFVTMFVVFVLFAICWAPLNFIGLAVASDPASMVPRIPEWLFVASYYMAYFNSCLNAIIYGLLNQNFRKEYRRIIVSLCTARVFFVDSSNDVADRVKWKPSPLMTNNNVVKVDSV
T5 sequence (P48039 whole entry N162Q): as the sequence (P48039 whole entry) above, with N162Q counted along it

COc1ccc2[nH]cc(CCNC(N)=O)c2c1 [Compound 28, [2-(5-methoxy-1H-indol-3-yl)ethyl]urea]
inhibition at 10 µM (5-HT7A [1]; 10 μM): > 50%
Ki (5-HT7A [1]; read-out: pKi, 5-HT7A (converted)): 288 nM
Ki (MT1): 16.6 nM
inhibition at 10 µM (5-HT1A; 10 μM): > 50%
Ki (5-HT1A; read-out: pKi, 5-HT1A (converted)): 851 nM
MT2/MT1 Selectivity (MT2; Antilog (log(Emax/EC50) MT2 - log (Emax/EC50) MT1), values below 1 = MT1 selectivity): 0.7 fold
EC50 (MT2; SEM, N = 3, read-out: MT2 pEC50 ± SEM (converted)): 0.0447 nM
EC50 (MT2; read-out: MT2 EC50): 0.04 nM
Emax (MT2; MT2, activation compared to melatonin, read-out: MT2 Emax ± SEM): < 70%
MT2 LE (MT2; ligand efficiency (based on EC50)): 0.85 kcal/mol per non-hydrogen atom
EC50 [2]: 468 nM
EC50 (5-HT7A [3]): 1820 nM
